{"source": "patent US20150274639A1", "about": "“METHODS OF USE FOR COMPOSITIONS COMPRISING A BIOCIDAL POLYAMINE” (Curza Global, LLC, priority 2013, published 2015)", "key": {"[1]": {"system": "MRSA biofilm", "assay": "EBEC, high number biofilms on PEEK membranes (10^9 to 10^2 CFU/PEEK membrane in 24 hours)", "format": "cell-based, methicillin-resistant Staphylococcus aureus", "settings": "for EBEC, MRSA: Table 4", "procedure": "In addition to determining the MIC and the MBEC of polyamine compounds against planktonic bacteria and low number biofilms, our group wanted to determine the efficacy of polyamine compounds against high number biofilms. To do so, biofilms were grown on the surface of polyetheretherketone (PEEK) membranes using a membrane biofilm reactor. This reactor is similar to the CDC biofilm reactor, but rather than growing biofilms on coupon surfaces, the reactor was modified to hold PEEK membranes. In short, to grow biofilms within this system, 500 mL of brain heart infusion (BHI) broth were inoculated with 1 mL of a 0.5 McFarland. The reactor was placed on a hot plate set at 34° C. and the bacteria were grown under batch conditions for 24 hours. Following this protocol, biofilms typically grow to 10^9 CFU/PEEK membrane. […] A solution of 10% BHI was then flowed through the reactor at a rate of 6.94 mL/min for an additional 24 hours. PEEK membranes were then removed and placed into 2 mL of CAMHB that contained a desired concentration of polyamine compound or antibiotic. The EBEC was defined as the concentration of antimicrobial required to reduce a biofilm from approximately 10^9 CFU/PEEK membrane to approximately 10^2 CFU/PEEK membrane in a 24-hour period.\nIn addition to determining the MIC and the MBEC of compounds against planktonic bacteria and low number biofilms, the efficacy of the compounds of the invention against high number biofilms is determined. To do so, biofilms are grown on the surface of PEEK membranes using a membrane biofilm reactor (Williams, D. L., Haymond, B. S. & Bloebaum, R. D. Use of delrin plastic in a modified CDC biofilm reactor. Res J Microbiol 6, 425-429 (2011); Williams, D. L., Woodbury, K. L., Haymond, B. S., Parker, A. E. & Bloebaum, R. D. A modified CDC biofilm reactor to produce mature biofilms on the surface of PEEK membranes for an in vivo animal model application. Curr Microbiol 62, 1657-1663 (2011); Williams, D. L. et al., In Vivo Efficacy of a Silicone—Cationic Steroid Antimicrobial Coating to Prevent Implant-Related Infection. Biomaterials 33, 8641-8656 (2012); Williams, D. L. et al., Experimental model of biofilm implant-related osteomyelitis to test combination biomaterials using biofilms as initial inocula. J Biomed Mat Res A 100, 1888-1900 (2012)). This reactor is similar to the CDC biofilm reactor, but rather than growing biofilms on coupon surfaces, the reactor was modified to hold PEEK membranes. In short, to grow biofilms within this system, 500 mL of brain heart infusion (BHI) broth is inoculated with 1 mL of a 0.5 McFarland. The reactor is placed on a hot plate set at 34° C. and the bacteria grown under batch conditions for 24 hours. A solution of 10% BHI will then be flowed through the reactor at a rate of 6.94 mL/min for an additional 24 hours. Following this protocol, biofilms typically grow to 10^9 CFU/PEEK membrane. PEEK membranes is removed and placed into 2 mL of CAMHB that contain a desired concentration of the test compound. The EBEC is defined as the concentration of antimicrobial required to reduce a biofilm from approximately 10^9 CFU/PEEK membrane to approximately 10^2 CFU/PEEK membrane in a 24-hour period.\nEBEC data were collected to determine the efficacy of CZ-52, CZ-58 and traditional antibiotics against high number biofilms containing approximately 10^9 CFU grown on the surface of a polyetheretherketone (PEEK) membrane."}, "[2]": {"system": "A. baumannii biofilm", "assay": "MBEC, MBEC Inoculation Tray by Innovotech (to 10^2 CFU/peg in 24 hours)", "format": "cell-based, Acinetobacter baumannii", "settings": "Table 4", "text": "To determine the MBEC of each polyamine compound, the MBEC Inoculation Tray by Innovotech, formerly known as the Calgary biofilm device, was used. Within this device, biofilms grow on the surface of polystyrene pegs, 96 of which are attached to a lid. These pegs are inserted into a flat bottom 96-well plate. In this instance, the MBEC of a molecule was defined as the concentration of compound (in μg/mL) required to reduce 10^5 or 10^6 CFU/peg (biofilm levels varied by isolate) to 10^2 CFU/peg in a 24-hour period.\nFollowing the manufacturer's guidelines, biofilms were grown on the surface of each peg by first making a 0.5 McFarland of each isolate. The 0.5 McFarland was diluted 1:100 in CAMHB. Into each well of a flat bottom 96-well plate, 150 μL of broth were pipetted. The plate was shaken at 100 rpm for 24 hours (P. aeruginosa and A. baumannii) or 48 hours (MRSA). The pegs were then placed into a separate flat bottom 96-well plate for 10 seconds with 200 μL of phosphate buffered saline (PBS) in each well to remove nonadherent cells. The lid was then placed into a 96-well plate that contained varying concentrations of antimicrobial with 200 μL per well. The plate was incubated for 24 hours at 37° C. after which time 100 μL of broth were plated on TSA. TSA plates were incubated 24 hours at 37° C. and the number of CFU counted to calculate the CFU/peg. In this instance, the MBEC was defined as the concentration of antimicrobial required to reduce 10^5 or 10^6 CFU/peg to 10^2 CFU/peg in a 24 hour period.\nTo determine the MBEC, the MBEC Inoculation Tray by Innovotech, formerly known as the Calgary biofilm device, is used. Within this device, biofilms grow on the surface of polystyrene pegs, 96 of which are attached to a lid. These pegs are inserted into a flat bottom 96-well plate. In this instance, the MBEC of a molecule is defined as the concentration of compound required to reduce approximately 10^6 CFU/peg to approximately 10^2 CFU/peg in a 24-hour period.\nFollowing the manufacturer's guidelines, biofilms are grown on the surface of each peg by first making a 0.5 McFarland of A. baumannii. The 0.5 McFarland is diluted 1:100 in CAMHB broth. Into each well of a flat bottom 96-well plate, 150 μL of broth is pipetted. The plate is shaken at 100 rpm for 24 hours. The pegs are placed into a separate flat bottom 96-well plate for 10 seconds with 200 μL of phosphate buffered saline (PBS) in each well to remove nonadherent cells. The lid is placed into a 96-well plate that contains varying concentrations of antimicrobial with 200 μL of broth per well. The plate is incubated for 24 hours at 37° C. after which time 100 μL of broth is plated on TSA. TSA plates is incubated 24 hours at 37° C. and the number of CFU counted to calculate the CFU/peg.\nMBEC data were collected using the MBEC Inoculation Tray by Innovotech. The MBEC was defined in these preliminary results as the concentration of antimicrobial required to reduce 10^5 or 10^6 CFU/peg to 10^2 CFU/peg in a 24-hour period."}}, "note": "Several values for one entry are separate records, joined by “and”; a condition that tells them apart may be missing. Identical values can stand only once."}
{"molecule": "NCCCNCCCNCc1cccc(CNCCCNCCCN)c1", "note": "[CZ-25]", "values": [{"measurement": "EBEC, MRSA", "setting": "[1]", "value": "> 5,000 μg/mL and 13,715 μM"}, {"measurement": "MBEC, A. baumannii", "setting": "[2]", "value": "450 μg/mL and 1234 μM"}]}
{"molecule": "NCCCNCCCNCc1cc(CNCCCNCCCN)cc(CNCCCNCCCN)c1", "note": "[CZ-52]", "values": [{"measurement": "EBEC, MRSA", "setting": "[1]", "value": "250 μg/mL and 500 μM"}, {"measurement": "reduction of MRSA biofilms", "setting": "[1]; at 250 μg/mL, 24-hour period", "value": "greater than 7 log10 units"}, {"measurement": "MBEC, A. baumannii", "setting": "[2]", "value": "> 500 μg/mL and 995 μM"}]}
{"molecule": "NCCCNCCCNCc1cc(CNCCCNCCCN)cc(-c2ccccc2)c1", "note": "[CZ-58]", "values": [{"measurement": "EBEC, MRSA", "setting": "[1]", "value": "1,500 μg/mL and 3,403 μM"}, {"measurement": "MBEC, A. baumannii", "setting": "[2]", "value": "> 50 μg/mL and > 113 μM"}]}
{"molecule": "Polymyxin B sulfate [reference compound]", "values": [{"measurement": "MBEC, A. baumannii", "setting": "[2]", "value": "50 μg/mL and 36 μM"}]}
